Where two headings read alike, the source gives them in different places.
Legend:
[1] = CSF levels of sepiapterin, BH4, BH2 and neurotransmitter metabolites after sepiapterin; format: in vivo; conditions: 60 mg/kg; Day 1 or Day 7 +/-30 minutes from BH4 Tmax
Protocol: The cerebrospinal fluid (CSF) of selected subjects is collected via lumbar puncture on Day1 (before dose) and on Day 7 (i.e., following daily dosing for 7 days) approximately 30 minutes from time of the maximum observed plasma BH4 concentration (Tmax) as determined from the blood analysis. The cerebral spinal fluid (CSF) is analyzed by MNG Labs. Descriptive statistics are provided to characterize any changes in neurotransmitter metabolism between the Day 1, and Day 7 sample results. Method: Analyses were conducted in CSF samples of subjects administered 60 mg/kg sepiapterin or placebo. The following analytes were measured: sepiapterin, BH4, BH2, homovanillic acid (HVA), and 5-hydroxyindoleacetic acid (HIAA). Descriptive (n, mean, SD, median, minimum, maximum) statistics for these analytes at Day 1 and Day 7+/−30 minutes from Tmax and change from baseline at Day 7 were determined for each analyte.

[2] = Pharmacokinetics of multiple doses of sepiapterin in fed subjects; format: in vivo
Source text: Methods: Three cohorts of eight fed subjects each were randomized to receive once-daily sepiapterin or placebo for 7 days in a 6:2 ratio. A sentinel dose strategy was also used for administration of the highest sepiapterin dose.

[3] = Food effect on sepiapterin: plasma sepiapterin and BH4 in fasted and fed subjects; format: in vivo; conditions: sepiapterin 10 mg/kg oral
Protocol: Method: Subjects received 2 oral doses of sepiapterin (10 mg/kg) separated by 1 week in a fasted and fed state. Subjects were fed a standard high-fat (approximately 50 percent of total caloric content of the meal) and high-calorie (approximately 800 to 1000 calories) meal starting 30 minutes prior to receiving their second oral dose of sepiapterin on Day 8.
Sampling for PK analysis occurred predose on Days 1 and 8 (within 30 minutes before dosing) and 0.5 hr, 1 hr, 2 hr, 4 hr, 8 hr, 12 hr, and 24 hr after the doses on Days 1 and 8. The blood concentrations of sepiapterin and BH4 were analyzed by MNG Labs.

[4] = format: in vivo
Protocol: Method: Twelve subjects were given a single dose (10 mg/kg) of sepiapterin under fasting conditions and then 7 days later under fed conditions. Standard definitions of adverse events (AE) were used. All-cause AE were those that occurred at any time; treatment-emergent adverse events (TEAE) were those that occurred at or after the time of administration of study treatment. TEAEs related to study drug were based on the opinion of the investigator. Serious AE were defined as life threatening or caused death, hospitalization or prolongation of existing hospitalization, or were a persistent or significant disability/incapacity or a substantial disruption of the ability to conduct normal life functions, or a congenital anomaly/birth defect.

Q: With `C[C@H](O)C(=O)C1=Nc2c(nc(N)[nH]c2=O)NC1` [sepiapterin, Sepiapterin] as the compound, how does the “Sepiapterin in the CSF” value [1] read?
A: not detected

Q: What about the AUC0-24 of sepiapterin ([2]; Day 7, 60 mg/kg once daily) of the same compound?
A: 23 ng·h/mL

Q: What about the “Drug accumulation (plasma sepiapterin and BH4 after 1 and 7 days of treatment)” value ([2]; once daily for 7 days) of the same compound?
A: no drug accumulation

Q: And the “Maximum sepiapterin concentration in plasma” value ([3]; fasted, 0 h (predose))?
A: 0 nM

Q: What about the “Mean sepiapterin concentration in plasma” value ([3]; fasted, 0 h (predose)) of the same compound?
A: 0 nM

Q: What about the “Median sepiapterin concentration in plasma” value ([3]; fasted, 0 h (predose)) of the same compound?
A: 0 nM

Q: And the “Maximum sepiapterin concentration in plasma” value ([3]; fasted, 8 h)?
A: 0 nM

Q: What about the “Mean sepiapterin concentration in plasma” value ([3]; fasted, 8 h) of the same compound?
A: 0 nM

Q: What about the “Median sepiapterin concentration in plasma” value ([3]; fasted, 8 h) of the same compound?
A: 0 nM

Q: What about the “Maximum sepiapterin concentration in plasma” value ([3]; fasted, 12 h) of the same compound?
A: 0 nM

Q: What about the “Mean sepiapterin concentration in plasma” value ([3]; fasted, 12 h) of the same compound?
A: 0 nM

Q: What about the “Median sepiapterin concentration in plasma” value ([3]; fasted, 12 h) of the same compound?
A: 0 nM

Q: And the “Maximum sepiapterin concentration in plasma” value ([3]; fasted, 24 h)?
A: 0 nM

Q: What about the “Mean sepiapterin concentration in plasma” value ([3]; fasted, 24 h) of the same compound?
A: 0 nM

Q: What about the “Median sepiapterin concentration in plasma” value ([3]; fasted, 24 h) of the same compound?
A: 0 nM

Q: And the “Maximum sepiapterin concentration in plasma” value ([3]; fed, 0 h (predose))?
A: 0 nM

Q: What about the “Mean sepiapterin concentration in plasma” value ([3]; fed, 0 h (predose)) of the same compound?
A: 0 nM

Q: And the “Median sepiapterin concentration in plasma” value ([3]; fed, 0 h (predose))?
A: 0 nM

Q: What about the concentration at 2 h ([3]; fed, 0 h (predose), read-out: Minimum sepiapterin concentration in plasma) of the same compound?
A: 0 nM

Q: What about the “Median sepiapterin concentration in plasma” value ([3]; fed, 0.5 h) of the same compound?
A: 0 nM

Q: And the concentration at 2 h ([3]; fed, 0.5 h, read-out: Minimum sepiapterin concentration in plasma)?
A: 0 nM

Q: And the concentration at 2 h ([3]; fed, 4 h, read-out: Minimum sepiapterin concentration in plasma)?
A: 0 nM

Q: What about the “Median sepiapterin concentration in plasma” value ([3]; fed, 8 h) of the same compound?
A: 0 nM

Q: What about the concentration at 2 h ([3]; fed, 8 h, read-out: Minimum sepiapterin concentration in plasma) of the same compound?
A: 0 nM

Q: What about the “Maximum sepiapterin concentration in plasma” value ([3]; fed, 12 h) of the same compound?
A: 0 nM

Q: What about the “Mean sepiapterin concentration in plasma” value ([3]; fed, 12 h) of the same compound?
A: 0 nM

Q: What about the “Median sepiapterin concentration in plasma” value ([3]; fed, 12 h) of the same compound?
A: 0 nM

Q: What about the concentration at 2 h ([3]; fed, 12 h, read-out: Minimum sepiapterin concentration in plasma) of the same compound?
A: 0 nM

Q: And the “Maximum sepiapterin concentration in plasma” value ([3]; fed, 24 h)?
A: 0 nM

Q: And the “Mean sepiapterin concentration in plasma” value ([3]; fed, 24 h)?
A: 0 nM

Q: And the “Median sepiapterin concentration in plasma” value ([3]; fed, 24 h)?
A: 0 nM

Q: And the concentration at 2 h ([3]; fed, 24 h, read-out: Minimum sepiapterin concentration in plasma)?
A: 0 nM

Q: What about the concentration at 0 h ([3]; human, plasma, fasted, 0 h (predose), read-out: Minimum sepiapterin concentration in plasma) of the same compound?
A: 0 nM

Q: What about the concentration at 0.5 h ([3]; human, plasma, fasted, 0.5 h, read-out: Minimum sepiapterin concentration in plasma) of the same compound?
A: 0 nM

Q: And the concentration at 4 h ([3]; human, plasma, fasted, 4 h, read-out: Minimum sepiapterin concentration in plasma)?
A: 0 nM

Q: And the concentration at 8 h ([3]; human, plasma, fasted, 8 h, read-out: Minimum sepiapterin concentration in plasma)?
A: 0 nM

Q: What about the concentration at 12 h ([3]; human, plasma, fasted, 12 h, read-out: Minimum sepiapterin concentration in plasma) of the same compound?
A: 0 nM

Q: And the concentration at 24 h ([3]; human, plasma, fasted, 24 h, read-out: Minimum sepiapterin concentration in plasma)?
A: 0 nM

Q: What about the concentration at 1 h ([3]; human, plasma, fed, 1 h, read-out: Minimum sepiapterin concentration in plasma) of the same compound?
A: 0 nM

Q: And the concentration at 2 h ([3]; human, plasma, fed, 2 h, read-out: Minimum sepiapterin concentration in plasma)?
A: 0 nM

Q: And the “Geometric mean ratio (fasted/fed, 90% CI) for plasma sepiapterin AUClast” value ([3]; fasted/fed)?
A: 1.29 (0.84 to 2.00)

Q: And the “Geometric mean ratio (fasted/fed, 90% CI) for plasma sepiapterin Cmax” value ([3]; fasted/fed)?
A: 1.57 (1.21 to 2.0)

Q: And the “Cmax of BH4 in the plasma, fed compared to fasted” value ([3]; fed vs fasted)?
A: much higher

Q: And the “Cmax of sepiapterin in the plasma, fed compared to fasted” value ([3]; fed vs fasted)?
A: much lower

Q: And the TEAE ([4]; human, in vivo, 10 mg/kg)?
A: 4

Q: What about the “TEAE related to study drug” value ([4]; human, in vivo, 10 mg/kg) of the same compound?
A: 1

Q: And the “≥1 AE” value ([4]; human, in vivo, 10 mg/kg)?
A: 5

Q: What about the “Incidence of adverse events, fed compared to fasted subjects” value ([4]; single dose 10 mg/kg, fed vs fasted) of the same compound?
A: decreased incidence of adverse events
